Measured values as given in publication PMC5218480 (PLoS ONE, 2017).

System: MV-4-11 cells
Assay: Gene expression microarray analysis (Affymetrix PrimeView) and GSEA
Type: cell-based, human
Set-up: RFU PODN (11730768_x_at) / Fold change /veh PODN (11730768_x_at) / RFU LINC00158 (11744669_a_at) / Fold change /veh LINC00158 (11744669_a_at) / RFU DUSP10 (11751237_a_at) / Fold change /veh DUSP10 (11751237_a_at) / RFU ID3 (11757404_x_at) / Fold change /veh ID3 (11757404_x_at) / RFU PLEKHG5 (11737974_s_at) / Fold change /veh PLEKHG5 (11737974_s_at) / RFU LRRC4B (11730491_at) / Fold change /veh LRRC4B (11730491_at) / RFU GIMAP4 (11747438_a_at) / Fold change /veh GIMAP4 (11747438_a_at) / RFU KRT8 (11758183_x_at) / Fold change /veh KRT8 (11758183_x_at) / RFU CNN1 (11734310_a_at) / Fold change /veh CNN1 (11734310_a_at) / RFU VPS37D (11726825_at) / Fold change /veh VPS37D (11726825_at) / RFU C10orf10 (11716522_x_at) / Fold change /veh C10orf10 (11716522_x_at) / RFU KIR2DL2 /// KIR2DL4 /// KIR2DL5A /// KIR2DL5B /// KIR2DS1 /// KIR2DS2 /// KIR2DS3 /// KIR2DS4 /// KIR3DL3 /// KIR3DL3 /// KIR3DS1 (11738374_at) / Fold change /veh KIR2DL2 /// KIR2DL4 /// KIR2DL5A /// KIR2DL5B /// KIR2DS1 /// KIR2DS2 /// KIR2DS3 /// KIR2DS4 /// KIR3DL3 /// KIR3DL3 /// KIR3DS1 (11738374_at) / RFU C1QL1 (11718748_at) / Fold change /veh C1QL1 (11718748_at) / RFU TMPRSS4 (11747572_a_at) / Fold change /veh TMPRSS4 (11747572_a_at) / RFU HAMP (11756126_x_at) / Fold change /veh HAMP (11756126_x_at) / RFU RNFT2 (11725882_a_at) / Fold change /veh RNFT2 (11725882_a_at) / RFU NR4A2 (11747474_a_at) / Fold change /veh NR4A2 (11747474_a_at) / RFU ABCC12 (11746883_a_at) / Fold change /veh ABCC12 (11746883_a_at) / RFU TMEM136 (11760407_x_at) / Fold change /veh TMEM136 (11760407_x_at) / RFU CLDN22 /// WWC2 (11732394_at) / Fold change /veh CLDN22 /// WWC2 (11732394_at) / RFU HLA-DPB1 (11760878_x_at) / Fold change /veh HLA-DPB1 (11760878_x_at) / RFU SPINT1 (11716480_a_at) / Fold change /veh SPINT1 (11716480_a_at) / RFU GAP43 (11754022_s_at) / Fold change /veh GAP43 (11754022_s_at) / RFU A4GNT (11735810_at) / Fold change /veh A4GNT (11735810_at) / RFU PRB3 (11715151_x_at) / Fold change /veh PRB3 (11715151_x_at) / RFU TUBB4B (11761932_at) / Fold change /veh TUBB4B (11761932_at) / RFU CAPN14 (11732068_a_at) / Fold change /veh CAPN14 (11732068_a_at) / RFU TMCC2 (11721928_a_at) / Fold change /veh TMCC2 (11721928_a_at) / RFU IRGQ (11745062_a_at) / Fold change /veh IRGQ (11745062_a_at) / RFU FAM174B (11720279_a_at) / Fold change /veh FAM174B (11720279_a_at) / RFU TMPRSS4 (11748680_a_at) / Fold change /veh TMPRSS4 (11748680_a_at) / RFU FAM212B (11763350_a_at) / Fold change /veh FAM212B (11763350_a_at) / RFU PLEKHG5 (11743358_a_at) / Fold change /veh PLEKHG5 (11743358_a_at) / RFU ZSCAN30 (11745921_a_at) / Fold change /veh ZSCAN30 (11745921_a_at) / RFU CMKLR1 (11741424_a_at) / Fold change /veh CMKLR1 (11741424_a_at) / RFU LOC101060620 /// MAPK8IP1 (11723275_at) / Fold change /veh LOC101060620 /// MAPK8IP1 (11723275_at) / RFU SPTSSB (11747773_x_at) / Fold change /veh SPTSSB (11747773_x_at) / RFU PRSS12 (11739890_at) / Fold change /veh PRSS12 (11739890_at) / RFU BIN1 (11741810_x_at) / Fold change /veh BIN1 (11741810_x_at) / RFU WNT11 (11732464_a_at) / Fold change /veh WNT11 (11732464_a_at) / RFU C10orf10 (11716521_a_at) / Fold change /veh C10orf10 (11716521_a_at) / RFU C5orf56 (11738089_at) / Fold change /veh C5orf56 (11738089_at) / RFU CYB561 (11721691_x_at) / Fold change /veh CYB561 (11721691_x_at) / RFU ANKRD19P (11752326_a_at) / Fold change /veh ANKRD19P (11752326_a_at) / RFU OR2T12 /// OR2T33 /// OR2T8 (11738714_s_at) / Fold change /veh OR2T12 /// OR2T33 /// OR2T8 (11738714_s_at) / RFU VCAN (11748164_a_at) / Fold change /veh VCAN (11748164_a_at) / RFU JSRP1 (11732532_at) / Fold change /veh JSRP1 (11732532_at) / RFU KRTAP10-11 (11738290_x_at) / Fold change /veh KRTAP10-11 (11738290_x_at) / RFU MYO3A (11730013_a_at) / Fold change /veh MYO3A (11730013_a_at) / RFU EBF3 (11725865_a_at) / Fold change /veh EBF3 (11725865_a_at) / RFU CAMK2N1 (11719241_x_at) / Fold change /veh CAMK2N1 (11719241_x_at) / RFU C5orf56 (11738088_a_at) / Fold change /veh C5orf56 (11738088_a_at) / RFU OLFML3 (11715873_a_at) / Fold change /veh OLFML3 (11715873_a_at) / RFU LOC100653217 /// NTM (11731650_a_at) / Fold change /veh LOC100653217 /// NTM (11731650_a_at) / RFU MAPK11 (11762145_a_at) / Fold change /veh MAPK11 (11762145_a_at) / RFU FIZ1 (11724087_x_at) / Fold change /veh FIZ1 (11724087_x_at) / RFU OASL (11726364_x_at) / Fold change /veh OASL (11726364_x_at) / RFU SOX15 (11748057_x_at) / Fold change /veh SOX15 (11748057_x_at) / RFU CD79A (11719716_a_at) / Fold change /veh CD79A (11719716_a_at) / RFU HIST1H1D (11736915_at) / Fold change /veh HIST1H1D (11736915_at) / RFU CASKIN2 (11723855_a_at) / Fold change /veh CASKIN2 (11723855_a_at) / RFU LOC730098 (11760151_x_at) / Fold change /veh LOC730098 (11760151_x_at) / RFU OR4N2 (11742367_at) / Fold change /veh OR4N2 (11742367_at) / RFU PRRT2 (11749266_a_at) / Fold change /veh PRRT2 (11749266_a_at) / RFU SNX32 (11753110_a_at) / Fold change /veh SNX32 (11753110_a_at) / RFU CDHR5 (11726645_a_at) / Fold change /veh CDHR5 (11726645_a_at) / RFU RCAN1 (11760418_a_at) / Fold change /veh RCAN1 (11760418_a_at) / RFU FAM167A (11723789_a_at) / Fold change /veh FAM167A (11723789_a_at) / RFU FAM26E (11764081_at) / Fold change /veh FAM26E (11764081_at) / RFU ISYNA1 (11749810_s_at) / Fold change /veh ISYNA1 (11749810_s_at) / RFU ACY1 (11761880_at) / Fold change /veh ACY1 (11761880_at) / RFU 11764098_at / Fold change /veh 11764098_at / RFU SAMD14 (11745864_x_at) / Fold change /veh SAMD14 (11745864_x_at) / RFU NPB (11741838_a_at) / Fold change /veh NPB (11741838_a_at) / RFU TMPRSS6 (11731388_a_at) / Fold change /veh TMPRSS6 (11731388_a_at) / RFU KRTAP10-2 (11738614_at) / Fold change /veh KRTAP10-2 (11738614_at) / RFU ARHGAP8 /// PRR5-ARHGAP8 (11727945_x_at) / Fold change /veh ARHGAP8 /// PRR5-ARHGAP8 (11727945_x_at) / RFU KRTAP5-7 /// NADSYN1 (11734609_at) / Fold change /veh KRTAP5-7 /// NADSYN1 (11734609_at) / RFU RASL12 (11751679_a_at) / Fold change /veh RASL12 (11751679_a_at) / RFU CDKN2B (11736163_a_at) / Fold change /veh CDKN2B (11736163_a_at) / RFU PRF1 (11729649_at) / Fold change /veh PRF1 (11729649_at) / RFU, ZNF638 /// ZNF638-IT1 / Fold change vs veh, ZNF638 /// ZNF638-IT1 / RFU, PANK3 / Fold change vs veh, PANK3 / RFU, SH3YL1 / Fold change vs veh, SH3YL1 / RFU, ZEB2 / Fold change vs veh, ZEB2 / RFU, NRIP1 / Fold change vs veh, NRIP1 / RFU, PTTG1IP / Fold change vs veh, PTTG1IP / RFU, CAPN2 / Fold change vs veh, CAPN2 / RFU, MED14 / Fold change vs veh, MED14 / RFU, SNORA58 / Fold change vs veh, SNORA58 / RFU, C1orf63 / Fold change vs veh, C1orf63 / RFU, LRRFIP1 / Fold change vs veh, LRRFIP1 / RFU, NDUFAF7 / Fold change vs veh, NDUFAF7 / RFU, SLC12A2 / Fold change vs veh, SLC12A2 / RFU, IBTK / Fold change vs veh, IBTK / RFU, ESF1 / Fold change vs veh, ESF1 / Fold change vs veh, TMEM50B / RFU, TAOK1 / Fold change vs veh, TAOK1 / RFU, ACBD3 / Fold change vs veh, ACBD3 / RFU, TMA16 / Fold change vs veh, TMA16 / RFU, RWDD3 / Fold change vs veh, RWDD3 / RFU, BCAT1 / Fold change vs veh, BCAT1 / RFU, EDEM3 / Fold change vs veh, EDEM3 / RFU, TMEM33 / Fold change vs veh, TMEM33 / RFU, WDR75 / Fold change vs veh, WDR75 / RFU, AHCTF1 / Fold change vs veh, AHCTF1 / RFU, TFRC / Fold change vs veh, TFRC / RFU, ZDHHC17 / Fold change vs veh, ZDHHC17 / RFU, NOM1 / Fold change vs veh, NOM1 / RFU, ARL8B / Fold change vs veh, ARL8B / RFU, ZBTB11 / Fold change vs veh, ZBTB11 / RFU, TAMM41 / Fold change vs veh, TAMM41 / RFU, KIAA1704 /// LOC100996395 / Fold change vs veh, KIAA1704 /// LOC100996395 / RFU, ING1 / Fold change vs veh, ING1 / RFU, TRMT61B / Fold change vs veh, TRMT61B / RFU, FUBP3 / Fold change vs veh, FUBP3 / RFU, TP53 / Fold change vs veh, TP53 / RFU, TNKS2 / Fold change vs veh, TNKS2 / RFU, ZFP14 / Fold change vs veh, ZFP14 / RFU, ACTR2 / Fold change vs veh, ACTR2 / RFU, PPP3R1 / Fold change vs veh, PPP3R1 / RFU, PIK3R1 / Fold change vs veh, PIK3R1 / RFU, HNRNPA1 / Fold change vs veh, HNRNPA1 / RFU, RNF170 / Fold change vs veh, RNF170 / RFU, ZNF28 / Fold change vs veh, ZNF28 / RFU, RNGTT / Fold change vs veh, RNGTT / RFU, OGT / Fold change vs veh, OGT / RFU, BRD1 / Fold change vs veh, BRD1 / RFU, MARS / Fold change vs veh, MARS / RFU, ZNF655 / Fold change vs veh, ZNF655 / RFU, FAHD1 / Fold change vs veh, FAHD1 / RFU, BDP1 / Fold change vs veh, BDP1 / RFU, LRRCC1 / Fold change vs veh, LRRCC1 / RFU, ARID1A / Fold change vs veh, ARID1A / RFU, ZNF146 / Fold change vs veh, ZNF146 / RFU, ZNF330 / Fold change vs veh, ZNF330 / RFU, GPN3 / Fold change vs veh, GPN3 / RFU, C9orf123 / Fold change vs veh, C9orf123 / RFU, N4BP2L2 / Fold change vs veh, N4BP2L2 / RFU, ARFIP1 / Fold change vs veh, ARFIP1 / RFU, FAM179B / Fold change vs veh, FAM179B / RFU, BCL10 / Fold change vs veh, BCL10 / RFU, UHRF1BP1L / Fold change vs veh, UHRF1BP1L / RFU, BET1 / Fold change vs veh, BET1 / RFU, CNOT2 / Fold change vs veh, CNOT2 / RFU, ZNF268 / Fold change vs veh, ZNF268 / Fold change vs veh, ZNF507 / RFU, DGCR2 / Fold change vs veh, DGCR2 / RFU, WDSUB1 / Fold change vs veh, WDSUB1 / Fold change vs veh, HSP90B1 /// MIR3652 / RFU, ADSS / Fold change vs veh, ADSS / RFU, GK / Fold change vs veh, GK / RFU, ZNF148 / Fold change vs veh, ZNF148 / RFU, TAF9 / Fold change vs veh, TAF9 / RFU, SLC1A5 / Fold change vs veh, SLC1A5 / RFU, SLMO2 / Fold change vs veh, SLMO2 / RFU, ABCC4 / Fold change vs veh, ABCC4 / RFU, LOC101060439 /// RAP1B / Fold change vs veh, LOC101060439 /// RAP1B / RFU, RFX7 / Fold change vs veh, RFX7 / RFU, GTPBP10 / Fold change vs veh, GTPBP10 / RFU, CNEP1R1 / Fold change vs veh, CNEP1R1 / RFU, BIVM-ERCC5 /// ERCC5 / Fold change vs veh, BIVM-ERCC5 /// ERCC5 / RFU, ILF3 / Fold change vs veh, ILF3 / RFU 11762660_at / Fold change /veh 11762660_at / RFU VCAN (11757783_s_at) / Fold change /veh VCAN (11757783_s_at) / RFU DDX43 (11728927_at) / Fold change /veh DDX43 (11728927_at) / RFU KRT8 (11758188_x_at) / Fold change /veh KRT8 (11758188_x_at) / RFU NKD1 (11759106_at) / Fold change /veh NKD1 (11759106_at) / RFU SRD5A1 (11742802_a_at) / Fold change /veh SRD5A1 (11742802_a_at) / RFU TPSAB1 /// TPSB2 (11721975_s_at) / Fold change /veh TPSAB1 /// TPSB2 (11721975_s_at) / RFU GSTM3 (11746129_a_at) / Fold change /veh GSTM3 (11746129_a_at) / RFU IL23R (11737362_x_at) / Fold change /veh IL23R (11737362_x_at) / RFU TMEM51 (11727254_a_at) / Fold change /veh TMEM51 (11727254_a_at) / RFU PIWIL2 (11732686_x_at) / Fold change /veh PIWIL2 (11732686_x_at) / RFU ORM1 (11744905_x_at) / Fold change /veh ORM1 (11744905_x_at) / RFU CCDC152 (11743942_at) / Fold change /veh CCDC152 (11743942_at) / RFU ECM1 (11717891_a_at) / Fold change /veh ECM1 (11717891_a_at) / RFU IL23R (11748794_a_at) / Fold change /veh IL23R (11748794_a_at) / RFU TNFAIP8L3 (11732012_x_at) / Fold change /veh TNFAIP8L3 (11732012_x_at) / RFU MBOAT4 (11741988_at) / Fold change /veh MBOAT4 (11741988_at) / RFU 11764193_at / Fold change /veh 11764193_at / RFU TMEM53 (11763286_at) / Fold change /veh TMEM53 (11763286_at) / RFU MAGEB2 (11727129_at) / Fold change /veh MAGEB2 (11727129_at) / RFU TMEM200A (11744735_a_at) / Fold change /veh TMEM200A (11744735_a_at) / RFU CCDC152 (11751479_a_at) / Fold change /veh CCDC152 (11751479_a_at) / RFU FAM211A (11726209_a_at) / Fold change /veh FAM211A (11726209_a_at) / RFU RGS16 (11746705_a_at) / Fold change /veh RGS16 (11746705_a_at) / RFU VCAN (11755009_s_at) / Fold change /veh VCAN (11755009_s_at) / RFU RHOB (11743442_s_at) / Fold change /veh RHOB (11743442_s_at) / RFU RGS16 (11720943_a_at) / Fold change /veh RGS16 (11720943_a_at) / RFU RGS16 (11720944_at) / Fold change /veh RGS16 (11720944_at) / RFU, VPS4B / Fold change vs veh, VPS4B / RFU, CREB1 / Fold change vs veh, CREB1 / RFU, DNAJC13 / Fold change vs veh, DNAJC13 / RFU, GNAQ / Fold change vs veh, GNAQ / RFU, CDK5R1 / Fold change vs veh, CDK5R1 / RFU, ZRANB3 / Fold change vs veh, ZRANB3 / RFU, CUL4A / Fold change vs veh, CUL4A / RFU, CCNY / Fold change vs veh, CCNY / RFU, UFL1 / Fold change vs veh, UFL1 / RFU, COG3 / Fold change vs veh, COG3 / RFU, DIAPH2 / Fold change vs veh, DIAPH2 / RFU, SKA2 / Fold change vs veh, SKA2 / RFU, AFF3 / Fold change vs veh, AFF3 / RFU, LMF1 / Fold change vs veh, LMF1 / RFU, IPO11 / Fold change vs veh, IPO11 / RFU, DFFB / Fold change vs veh, DFFB / RFU, FOXP1 / Fold change vs veh, FOXP1 / RFU, CARD8 / Fold change vs veh, CARD8 / RFU, STRN3 / Fold change vs veh, STRN3 / RFU, ADK / Fold change vs veh, ADK / RFU, RASSF2 / Fold change vs veh, RASSF2 / RFU, WIPF1 / Fold change vs veh, WIPF1 / RFU, LARP1B / Fold change vs veh, LARP1B / RFU, RASA1 / Fold change vs veh, RASA1 / RFU, RB1 / Fold change vs veh, RB1 / RFU, PPFIA1 / Fold change vs veh, PPFIA1 / RFU, MAT2A / Fold change vs veh, MAT2A / RFU, CCT5 / Fold change vs veh, CCT5 / RFU, WDR92 / Fold change vs veh, WDR92 / RFU, CUX1 / Fold change vs veh, CUX1 / RFU, TTC7A / Fold change vs veh, TTC7A / RFU, TMEM135 / Fold change vs veh, TMEM135 / RFU, DEPTOR / Fold change vs veh, DEPTOR / RFU, CPM / Fold change vs veh, CPM / RFU, DNAJB6 / Fold change vs veh, DNAJB6 / RFU, CACNA2D3 / Fold change vs veh, CACNA2D3 / RFU, DTX4 / Fold change vs veh, DTX4 / RFU, TFCP2 / Fold change vs veh, TFCP2 / RFU, GMCL1 /// GMCL1P1 / Fold change vs veh, GMCL1 /// GMCL1P1 / RFU, AEBP2 / Fold change vs veh, AEBP2 / RFU, SNHG1 /// SNORD22 /// SNORD25 /// SNORD26 /// SNORD27 /// SNORD28 /// SNORD29 /// SNORD31 / Fold change vs veh, SNHG1 /// SNORD22 /// SNORD25 /// SNORD26 /// SNORD27 /// SNORD28 /// SNORD29 /// SNORD31 / Fold change (Aza/veh), C12orf56 (ProbeSet 11735607_a_at) / Fold change (ACY-1035/veh), C12orf56 (ProbeSet 11735607_a_at) / Fold change (Aza/veh), FGFR1OP (ProbeSet 11751329_s_at) / Fold change (ACY-1035/veh), FGFR1OP (ProbeSet 11751329_s_at) / Fold change (Aza/veh), VPS36 (ProbeSet 11739960_a_at) / Fold change (ACY-1035/veh), VPS36 (ProbeSet 11739960_a_at) / RFU SYPL1 (11715823_x_at) / Fold change /veh SYPL1 (11715823_x_at) / RFU IGFBP7 (11715501_s_at) / Fold change /veh IGFBP7 (11715501_s_at) / RFU REEP3 (11722064_at) / Fold change /veh REEP3 (11722064_at) / RFU IGLL1 (11728026_x_at) / Fold change /veh IGLL1 (11728026_x_at): dose or concentration left out as unconfirmed
Settings: MV-4-11 cells, 48 hours

Nc1ncn([C@@H]2O[C@H](CO)[C@@H](O)[C@H]2O)c(=O)n1 [azacitidine]
RFU RCAN1 (11760418_a_at): 18.64 RFU
